Test results: PMC5929447 (Oncotarget, 2018)
Read-outs that look alike come from different tables or passages of the source.

Legend:
BCL-2/BAX complex = BCL-2/BAX complex (Homo sapiens, UniProt P10415); test: Co-immunoprecipitation in RS4;11 cells; format: cell-based; settings: 2 h, increasing concentrations
[1] = test system: primary Chronic Lymphocytic Leukemia cells; test: Apoptosis (annexin V/PI flow cytometry) in primary CLL cells; format: cell-based; settings: Homo sapiens, CLL cell, 4 h
Method: Peripheral blood samples from CLL patients were obtained with informed patient consent and local ethical committee approval (UHL-09723). […] Interphase fluorescence in situ hybridization (FISH) was performed for detection of 17p13 deletion. Mantle cell lymphoma (MCL) primary cells were obtained after informed consent from MCL patients treated at the department of clinical hematology from the University Hospital of Nantes, France. Peripheral MCL cells from blood or pleural effusion, were purified after Ficoll-Hypaque separation with immuno-magnetic anti-CD19 beads (Miltenyi, Paris, France). Primary cells were cultured in RPMI-1640 supplemented with 10% FCS and 2 mM glutamine. Human platelets were isolated from citrate blood donated by healthy volunteers. Washed platelets were cultured in Hepes-buffered saline (HBS, 10 mM Hepes, 150 mM NaCl, 5 mM KCl, 1 mM MgSO4, pH 7.4). […] EC50 values were calculated using GraphPadPrism (non-linear fit, sigmoidal dose response, variable slope). […] Cell death was assessed in the CD19+ primary MCL cells by annexinV-FITC staining combined with an analysis of altered cellular morphology (lower FCS). Fluorescence was analyzed on FACSCalibur.

Toledo xenograft = Toledo xenograft efficacy; format: in vivo, mice; settings: day 21; for Mean TV change: mean ± s.e.m.
Method: Experiments were performed in SCID/beige female mice from Charles River Laboratories, Massachusetts, USA. Animals, approximately 7-8 weeks of age at the start of the treatment were allowed to acclimate in animal facility with access to food and water ad libitum for 3 days prior to manipulation. Animals were handled in accordance with IACUC regulations and guidelines for experiments performed in the USA and with European and French regulation for the protection of vertebrate animals for experiments performed in France. Animal well-being and behavior, including grooming and ambulation were monitored at least once a day. General health of mice was monitored and mortality recorded daily. Any moribund animals were sacrificed.
RS4;11 Acute Lymphoblastic Leukemia cell lines was obtained from ATCC. Toledo (Diffuse Large B-Cell Lymphoma) human cell lines were obtained internally through Bioresources and the Novartis-Cancer Cell Line Encyclopedia. Cells were free of Mycoplasma and murine viral contamination in the IMPACT VIII PCR assay panel (IDEXX RADIL, IDEXX laboratories INC, Westbrook, ME, USA). Cells used for subcutaneous implantation were cultured in RPMI plus 10% FBS at 37° C in a humidified atmosphere containing 5% carbon dioxide). […] Cells were resuspended in a 1:1 mixture of cold DPBS (Dulbecco's Phosphate-Buffered Saline) and Matrigel™ (Becton-Dickinson #354234) at a concentration of 3 × 10^7 cells/ml for Toledo cells, and of 1 × 10^7 cells/ml for RS4;11 cells.
For each experiment, female SCID/beige mice were implanted subcutaneously (right axillary region) with 3 × 10^6 Toledo or RS4;11 (1 × 10^6 cells for efficacy studies and 1 × 10^7 cells for pharmacodynamics studies) suspended in 1:1 mixture of cold DPBS and Matrigel™ in a total volume of 100 μl. Body weights were recorded and tumors were measured with digital calipers twice to three times a week. Tumor volume was calculated using the formula: length × width^2/2. Percent changes in body weights was calculated as (BWcurrent - BWinitial)/(BWinitial) × 100. Data is presented as percent body weight change from the day of treatment initiation.
When tumors reached approximately 200 mm^3 for efficacy studies or 300 mm^3 for pharmacodynamic studies, mice were randomized. […] Mice were treated via oral gavage at 10 ml/kg with the doses and schedules described in the figure.
For efficacy studies, percent treatment/control (T/C) values were calculated using the following formula: %T/C = 100 × ΔT/ΔC if ΔT > 0. Regression = 100 × ΔT/Tinitial if ΔT < 0 where: T = mean tumor burden of the drug-treated group on the final day of the study; ΔT = mean tumor burden of the drug-treated group on the final day of the study – mean tumor burden of the drug-treated group on initial day of dosing; Tinitial = mean tumor burden of the drug-treated group on initial day of dosing; C = mean tumor burden of the control group on the final day of the study; and ΔC = mean tumor burden of the control group on the final day of the study – mean tumor burden of the control group on initial day of dosing. If the tumor volume was less than 14 mm^3 for more than 3 consecutive measurements, animals were considered in complete regression (CR).

RS4;11 cells = test: Apoptosis hallmarks in RS4;11 cells (annexin V/PI flow cytometry, MSD cleaved caspase-3 and PARP); format: cell-based
Method: Cells were incubated with 200 μl of binding buffer containing AnnexinV-FITC (Invitrogen) and propidium iodide (PI, Sigma) during 15 min at 20° C in the dark. THP-1 cells were incubated with 200 μl of binding buffer containing AnnexinV-APC (BD Biosciences) and DAPI (Sigma). 400 μl of binding buffer was added and samples were kept at 4° C before cytometric analysis. […] Fluorescence was collected at 520 (FITC), 630 nm (PI), 660 nm (APC) and 470 (DAPI). Numbers of apoptotic cells (addition of primary apoptosis, secondary apoptosis and necrosis) was normalized to the total numbers of cells per tubes. page 6: Cleaved PARP and cleaved caspase-3 Cleared lysates (5 μg) were assayed for immunodetection immunodetection by MesoScale Discovery of cleaved PARP and cleaved caspase-3 with MSD (MSD) assay Apoptosis Panel Whole Cell Lysate kit (MSD […]) in 96-well plates according to manufacturer 's instructions, 24 h after seeding, cells were treated with the and analyzed on the Sector Image 2400. Control DMSO indicated compounds for 4 h and harvested in lysis buffer conditions were set to 100% and fold-activation calculated. […] Cleaved caspase-3 (C) and cleaved PARP (D) was measured using MesoScale Discovery Apoptosis panel. […]

[2] = 200 mg/kg oral five times a week for 3 weeks
[3] = 300 mg/kg oral five times a week for 3 weeks

Chain of BCL-2/BAX complex (P10415 whole entry, one chain of several): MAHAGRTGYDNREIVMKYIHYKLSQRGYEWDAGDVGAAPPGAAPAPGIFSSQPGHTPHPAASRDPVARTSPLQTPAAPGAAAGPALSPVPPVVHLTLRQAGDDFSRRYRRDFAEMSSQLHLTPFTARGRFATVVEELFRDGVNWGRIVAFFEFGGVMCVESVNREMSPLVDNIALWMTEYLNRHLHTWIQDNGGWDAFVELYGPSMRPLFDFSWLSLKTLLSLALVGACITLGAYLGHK

EC50 ([1]; 7 patients, 4 hours of treatment, read-out: EC50 apoptosis in primary CLL cells, range over patients): 4.4 to 47.2 nM
EC50 ([1]; read-out: EC50 S55746 primary CLL cells, patient CLL1, p17 del No, 4 h): 47.2 nM
EC50 ([1]; read-out: EC50 S55746 primary CLL cells, patient CLL2, p17 del No, 4 h): 13.8 nM
EC50 ([1]; read-out: EC50 S55746 primary CLL cells, patient CLL3, p17 del Yes, 4 h): 13.7 nM
EC50 ([1]; read-out: EC50 S55746 primary CLL cells, patient CLL4, p17 del No, 4 h): 12 nM
EC50 ([1]; read-out: EC50 S55746 primary CLL cells, patient CLL5, p17 del No, 4 h): 9.9 nM
EC50 ([1]; read-out: EC50 S55746 primary CLL cells, patient CLL6, p17 del Yes, 4 h): 7.8 nM
EC50 ([1]; read-out: EC50 S55746 primary CLL cells, patient CLL7, p17 del No, 4 h): 4.4 nM
Compound: O=C(c1cc(-c2cc3c(cc2C(=O)N2Cc4ccccc4C[C@H]2CN2CCOCC2)OCO3)n2c1CCCC2)N(c1ccccc1)c1ccc(O)cc1 [S55746]
disruption of the BCL-2/BAX complex in RS4;11 cells (BCL-2/BAX complex): concentration-dependent disruption of the BCL-2/BAX complex
% T/C (Toledo xenograft; [2]): 13 % T/C
Mean TV change (Toledo xenograft; [2]): 239.03 ± 67.97 mm3
% T/C (Toledo xenograft; [3]): 2 % T/C
Mean TV change (Toledo xenograft; [3]): 33.16 ± 37.38 mm3
apoptosis induction, externalization of phosphatidylserine (PS+ cells) (RS4;11 cells; 2 h): rapidly induced apoptosis in a concentration dependent-manner
cleavage of caspase-3 and PARP (RS4;11 cells; MSD assay): observed upon treatment by S55746 in a concentration dependent manner
